Results as given in ChEMBL document CHEMBL1806489, “Synthesis and biological evaluation of novel F-18 labeled pyrazolo[1,5-a]pyrimidine derivatives: potential PET imaging agents for tumor detection” (Bioorg Med Chem Lett, 2011).

Legend:
[1] = tested on: Brain; assay: Biodistribution in mouse S180 cells xenografted Kunming mouse brain at 370 kBq/0.1 mL, iv after 30 mins by gamma counting; assay type: ADME, organism-based, CCRF S-180; conditions: in vivo, 0.5 h
[2] = tested on: CCRF S-180; assay: Cellular uptake in mouse S180 cells after 30 mins; assay type: ADME, cell-based; conditions: ccrf s-180, 0.5 h
[3] = tested on: Lung; assay: Biodistribution in mouse S180 cells xenografted Kunming mouse lung at 370 kBq/0.1 mL, iv after 120 mins by gamma counting; assay type: ADME, organism-based, CCRF S-180; conditions: in vivo, 2 h
[4] = tested on: Spleen; assay: Biodistribution in mouse S180 cells xenografted Kunming mouse spleen at 370 kBq/0.1 mL, iv after 5 mins by gamma counting; assay type: ADME, organism-based, CCRF S-180; conditions: in vivo
[5] = tested on: Lung; assay: Biodistribution in mouse S180 cells xenografted Kunming mouse lung at 370 kBq/0.1 mL, iv after 60 mins by gamma counting; assay type: ADME, organism-based, CCRF S-180; conditions: in vivo, 1 h
[6] = tested on: Nucleic Acid; assay: Ratio of drug level in tumor to blood in mouse S180 cells xenografted Kunming mouse at 370 kBq/0.1 mL, iv after 60 mins by gamma counting; assay type: ADME, organism-based, CCRF S-180; conditions: tumour, 1 h
[7] = tested on: CCRF S-180; assay: Cellular uptake in mouse S180 cells relative to [18F]FDG; assay type: ADME, cell-based
[8] = tested on: Brain; assay: Biodistribution in mouse S180 cells xenografted Kunming mouse brain at 370 kBq/0.1 mL, iv after 120 mins by gamma counting; assay type: ADME, organism-based, CCRF S-180; conditions: in vivo, 2 h
[9] = tested on: Blood; assay: Biodistribution in mouse S180 cells xenografted Kunming mouse blood at 370 kBq/0.1 mL, iv after 15 mins by gamma counting; assay type: ADME, organism-based, CCRF S-180; conditions: in vivo, 0.25 h
[10] = tested on: Mus musculus; assay: Biodistribution in mouse S180 cells xenografted Kunming mouse excretory organ at 3.7 MBq, iv after 30 mins by PET imaging analysis; assay type: ADME, organism-based, CCRF S-180; conditions: in vivo, 0.5 h
[11] = tested on: Blood; assay: Biodistribution in mouse S180 cells xenografted Kunming mouse blood at 370 kBq/0.1 mL, iv after 5 mins by gamma counting; assay type: ADME, organism-based, CCRF S-180; conditions: in vivo
[12] = tested on: Mus musculus; assay: Biodistribution in mouse S180 cells xenografted Kunming mouse right forelimb of tumor at 3.7 MBq, iv after 30 mins by PET imaging analysis; assay type: ADME, organism-based, Neoplasm, CCRF S-180; conditions: in vivo, 0.5 h
[13] = tested on: Mus musculus; assay: Biodistribution in mouse S180 cells xenografted Kunming mouse tumor at 370 kBq/0.1 mL, iv after 120 mins by gamma counting; assay type: ADME, organism-based, Neoplasm, CCRF S-180; conditions: in vivo, 2 h
[14] = tested on: Kidney; assay: Biodistribution in mouse S180 cells xenografted Kunming mouse kidney at 370 kBq/0.1 mL, iv after 30 mins by gamma counting; assay type: ADME, organism-based, CCRF S-180; conditions: in vivo, 0.5 h
[15] = tested on: Blood; assay: Biodistribution in mouse S180 cells xenografted Kunming mouse blood at 370 kBq/0.1 mL, iv after 30 mins by gamma counting; assay type: ADME, organism-based, CCRF S-180; conditions: in vivo, 0.5 h
[16] = tested on: Heart; assay: Biodistribution in mouse S180 cells xenografted Kunming mouse heart at 370 kBq/0.1 mL, iv after 60 mins by gamma counting; assay type: ADME, organism-based, CCRF S-180; conditions: in vivo, 1 h
[17] = tested on: Nucleic Acid; assay: Ratio of drug level in tumor to brain in mouse S180 cells xenografted Kunming mouse at 370 kBq/0.1 mL, iv after 120 mins by gamma counting; assay type: ADME, organism-based, CCRF S-180; conditions: in vivo, 2 h
[18] = tested on: Mus musculus; assay: Biodistribution in mouse S180 cells xenografted Kunming mouse left forelimb of tumor at 3.7 MBq, iv after 30 mins by PET imaging analysis; assay type: ADME, organism-based, Neoplasm, CCRF S-180; conditions: in vivo, 0.5 h
[19] = tested on: Mus musculus; assay: Biodistribution in mouse S180 cells xenografted Kunming mouse tumor at 370 kBq/0.1 mL, iv after 30 mins by gamma counting; assay type: ADME, organism-based, Neoplasm, CCRF S-180; conditions: in vivo, 0.5 h
[20] = tested on: Kidney; assay: Biodistribution in mouse S180 cells xenografted Kunming mouse kidney at 370 kBq/0.1 mL, iv after 5 mins by gamma counting; assay type: ADME, organism-based, CCRF S-180; conditions: in vivo
[21] = tested on: Brain; assay: Biodistribution in mouse S180 cells xenografted Kunming mouse brain at 370 kBq/0.1 mL, iv after 15 mins by gamma counting; assay type: ADME, organism-based, CCRF S-180; conditions: in vivo, 0.25 h
[22] = tested on: Nucleic Acid; assay: Ratio of drug level in tumor to muscle in mouse S180 cells xenografted Kunming mouse at 370 kBq/0.1 mL, iv after 5 mins by gamma counting; assay type: ADME, organism-based, CCRF S-180; conditions: in vivo
[23] = tested on: Brain; assay: Biodistribution in mouse S180 cells xenografted Kunming mouse brain at 370 kBq/0.1 mL, iv after 5 mins by gamma counting; assay type: ADME, organism-based, CCRF S-180; conditions: in vivo
[24] = tested on: Spleen; assay: Biodistribution in mouse S180 cells xenografted Kunming mouse spleen at 370 kBq/0.1 mL, iv after 30 mins by gamma counting; assay type: ADME, organism-based, CCRF S-180; conditions: in vivo, 0.5 h
[25] = tested on: Liver; assay: Biodistribution in mouse S180 cells xenografted Kunming mouse liver at 370 kBq/0.1 mL, iv after 5 mins by gamma counting; assay type: ADME, organism-based, CCRF S-180; conditions: in vivo
[26] = tested on: Nucleic Acid; assay: Ratio of drug level in tumor to brain in mouse S180 cells xenografted Kunming mouse at 370 kBq/0.1 mL, iv after 30 mins by gamma counting; assay type: ADME, organism-based, CCRF S-180; conditions: in vivo, 0.5 h

Drug uptake [1] | Drug uptake [3] | Drug uptake [4] | Drug uptake [5] | Ratio [6] | Drug uptake [8] | Drug uptake [9] | Drug uptake [11] | Drug uptake [13] | Drug uptake [14] | Drug uptake [15] | Drug uptake [16] | Ratio [17] | Drug uptake [19] | Drug uptake [20] | Drug uptake [21] | Ratio [22] | Drug uptake [23] | Drug uptake [24] | Drug uptake [25] | Structure (SMILES) | further results
2.47 % ID/g | 2.54 % ID/g | 4.66 % ID/g | 2.78 % ID/g | 0.81 | 1.79 % ID/g | 4.65 % ID/g | 4.83 % ID/g | 2.88 % ID/g | 3.28 % ID/g | 4.49 % ID/g | 3.46 % ID/g | 1.61 | 5.51 % ID/g | 7.93 % ID/g | 2.7 % ID/g | 0.47 | 3.17 % ID/g | 3.43 % ID/g | 6.99 % ID/g | Cc1cc(NCC[18F])n2ncc(C#N)c2n1 | Drug uptake [2]: Active; fold change (FC) [7]: 2; Drug uptake [10]: Active; Drug uptake [12]: Not Active; Drug uptake [18]: Active; Ratio [26]: 2.23
0.12 % ID/g | 0.19 % ID/g | 4.54 % ID/g | 0.56 % ID/g | 1.66 | 0.04 % ID/g | 2.5 % ID/g | 5.23 % ID/g | 0.21 % ID/g | 5.63 % ID/g | 1.42 % ID/g | 0.63 % ID/g | 5.13 | 1.24 % ID/g | 17.7 % ID/g | 0.16 % ID/g | 0.59 | 0.38 % ID/g | 0.99 % ID/g | 17.9 % ID/g | Cc1cc(NCCNC(=O)c2ccc([N+](=O)[O-])cc2[18F])n2ncc(C#N)c2n1 | Drug uptake [7]: < 7%; Ratio [26]: 10.44
